From patent US11925622B2, “Role of novel carbazole linked 1, 2, 3- triazole analogs in alleviating methylglyoxal-mediated late diabetic vascular complications” (priority 2021, dated 2024) come the findings set out here.

The subject of assay [1] is MGO-mediated BSA glycation. Put plainly: In vitro antiglycation activity, MGO-BSA glycation assay (fluorescence). Type of assay: biochemical, bovine. To be noted: for IC50 / % inhibition of MGO-BSA glycation: BSA 10 mg/mL, MGO 0.1 M, 24 h, 37° C.; for IC50: read-out: IC50 antiglycation, MGO-BSA model; for % inhibition of MGO-BSA glycation: compounds at 1 mM. Here is the method: In vitro antiglycation activity: The MGO-BSA assay was performed as per optimized protocol of Jahan, H. et al with slight modifications. Initially, the antiglycation activity of parent compound carbazole (1), and carbazole-linked 1,2,3 triazoles 2-16 were identified at 1 mM using MGO-BSA model. […] BSA (10 mg/mL) incubated with MGO (0.1 M) for 24 h at 37° C. using phosphate-azide buffer (0.1 mM), served as a positive control. The wells with BSA only were taken as negative control. Whereas, rutin and quercetin were used as standard antiglycation agents. After 24 h of incubation, the fluorescence of each well was measured by using microplate reader (Varioskan lux, Thermo Fisher Scientific, 319 Scientific, USA) at 355 nm excitation, and 460 nm emission.
The % inhibition of MGO-BSA-mediated by carbazole-triazole derivatives was quantified by using the following formula: […]
The IC50 of active antiglycation compounds were identified by using EZ-FIT Enzyme Kinetics Program (Perrella Scientific Inc., Amherst, USA).

Assay [2] has as its system MGO-AGEs-induced ROS in THP-1 monocytes. Put plainly: Anti-oxidation activity, DCFH-DA assay of MGO-AGEs-mediated ROS in monocytes. The assay is classed as cell-based, human. As to conditions: for ROS (DCF fluorescence) in MGO-AGEs-treated monocytes: 100 μM (maximum inhibition), MGO-AGEs 50 μg/mL, 24 h; for antioxidant activity / ROS production inhibition (in words): MGO-AGEs 50 μg/mL-treated THP-1 monocytes. As to the method:
Anti-oxidation activity: The measurement of effect of derivatives on AGEs-mediated ROS was based on the previously reported protocol of Soumyarani and colleagues with slight amendments. Initially, 1×10^6 monocytes/mL were loaded in sterile 96-well flat bottom black fluorescent plate, and pre-incubated with DCFH-DA (10 μM; Sigma-Aldrich Chemical Corporation, St. Louis, Missouri, USA) for 45 min at 37° C. Followed by the incubation, antiglycating, non-toxic carbazole-linked triazole derivatives (10, 30, 50, and 100 μM) were added to the wells for 1 h before co-treatment of cells with MGO-AGEs (50 μg/mL) for next 24 h. Next, the fluorometric measurement of converted DCFH into oxidized DCF product was carried out via spectrofluorimeter (Varioskanmicroplate reader, Thermo Fisher Scientific, USA) using 485 nm excitation and 520 nm emission wavelengths. Various controls were plated in each experiment. Wells containing culture RPMI with MGO-AGEs (50 μg/mL) and H2O2 ([…]) served as positive controls, while cells containing BSA were taken as negative control.

Assay [3] relates to NF-κB (p65) translocation in monocytes. Nature of the assay: NF-κB (p65) translocation analysis by immunocytochemistry. Type of assay: cell-based, human. To be noted: compounds 100 μM, 1 h pre-incubation; AGEs 50 μg/mL 1 h; MGO-AGEs control 75 RFU, BSA 11 RFU. As to the method: NF-κB (p^65) translocation analysis: The monocytes at the density of 1×10^6 cells/mL were pre-incubated with compounds (100 μM) for an h, and then co-incubated with AGEs (50 μg/mL) for another 1 h in a 24-well plate at 37° C. Following treatment, cells were fixed with paraformaldehyde (4% PFA; 10 min), and permeabilized with Triton X-100 (0.2%; 10 min). Next, the cells were rinsed with chilled PBS three times, and incubated with bovine serum albumin (1% BSA; 1 h) to block the non-specific binding sites. Cells were exposed to primary antibody against NF-κB (p 65) (1:300 dilution, Thermo Fisher Scientific, Waltham, MA, USA) for overnight at 4° C. Subsequently followed by washing the cells with chilled PBS three times, secondary antibody (polyclonal fluorescein isothiocyanate (FITC)-conjugated antibody) to rabbit IgG (1:1000 dilution, Abeam, Cambridge, UK) was used.
Nuclei were counterstained by using DAPI (Thermo Fisher Scientific, Waltham, MA, USA). The BSA-treated monocytes (50 μg/mL) had served as a negative control, while AGEs-treated monocytes (50 μg/mL) as positive control. All the images were taken by using Nikon microscope (Nikon, Tokyo, Japan). The quantification of images was carried out via ImageJ (Image processing and analysis in Java-NIH).

The subject of assay [4] is COX-2. Nature of the assay: COX-2 protein levels analysis by immunoblotting. To be noted: human monocytes co-treated with MGO-AGEs 50 μg/mL; immunoblot densitometry. Type of assay: cell-based. Here is the method:
COX-2 protein levels analysis: The 50 μg/mL of protein was loaded onto 10% sodium dodecyl sulfate-polymerized acrylamide gel electrophoresis (SDS-PAGE), and transferred to nitrocellulose membranes using power blotter XL System (Invitrogen; Thermo Fisher Scientific). Subsequently, the membrane was incubated for 1 h in 1% bovine serum albumin in PBS with 0.1% Tween-20 to block unspecified binding. The protein bands of the membrane were probed with primary monoclonal antibody COX-2 (Thermo Fisher Scientific, Waltham, MA, USA), and B-actin (Cloud-Clone Corp., Wuhan, China) for overnight at 4° C. Following incubation, the membrane was rinsed with tris buffer saline tween (TBST) three times, and then exposed to secondary antibody (HRP mouse mono anti-rabbit IgG; Abeam, Cambridge, UK) at room temperature for an hour. The washing was again carried three times with TBST, and then the membrane was exposed to ECL (Sangon biotech, Shanghai, China) to visualize the bands in Western Blot Detection System (Thermo Fisher Scientific, Waltham, MA, USA). The densitometry of immuno-positive COX-2, and β-actin bands was used by Image J.

For assay [5], the system named is PGE2. Nature of the assay: PGE2 levels analysis by ELISA in THP-1 culture supernatants. Type of assay: cell-based, human. To be noted: THP-1, compounds 1 h, then AGEs 50 μg/mL. As to the method:
PGE2 levels analysis: ELISA-based method was employed to identify the concentration of PGE2 in culture supernatants of THP-1 cells that was initially exposed with compounds for 1 h, and then stimulated with AGEs (50 μg/mL). All the steps were followed according to the manufacturer's protocols.
A general note: In an ELISA, binding on a coated surface is turned into a signal by an enzyme label.

Each structure is given as a SMILES string. Where “and” joins values, the source holds several entries; their conditions need not be identical. Equal entries are not always repeated.

As for `O=C(Cn1cc(Cn2c3ccccc3c3ccccc32)nn1)c1ccc([N+](=O)[O-])cc1` [Compound 12, 2-(4-((9H-Carbazole-9-yl)methyl)-1H-1,2,3-triazole-1-y1)-1-(4-nitrophenyl)ethan-1-one], in assay [1], the “antiglycation activity in MGO-BSA model (in words)” value was “excellent antiglycation activity”; the half-inhibitory concentration (IC50) – broadly, the concentration that inhibits the measured activity by half – turned out to be 76.1 ± 6 µM; the “% inhibition of MGO-BSA glycation” value stood at 83.7%. In assay [2], the “ROS (DCF fluorescence) in MGO-AGEs-treated monocytes” value (“ROS (DCF fluorescence)” below) was 6.32 RFU and the “antioxidant activity / ROS production inhibition (in words)” value is “excellent ROS production inhibition”. The “NF-κB translocation in MGO-AGEs-treated monocytes” value (“NF-κB translocation” below) in assay [3] came out at 33 RFU. Moreover, in assay [4], the “reduction in COX-2 levels compared to MGO-BSA-treated cells” value (“reduction in COX-2 levels” for short) was 2.11 fold and 3 fold. In addition, the “effect on PGE2 levels (in words)” value in assay [5] is “reduced PGE2 levels significantly”.

As for `Cc1ncc([N+](=O)[O-])n1CCn1cc(Cn2c3ccccc3c3ccccc32)nn1` [Compound 13, 9-((1-(2-(2-Methyl-5-nitro-1H-imidazol-1-yl)ethyl)-1H1,2,3-triazol-4-yl)methyl)-9H-carbazole], in assay [1], the “antiglycation activity in MGO-BSA model (in words)” value was “good activity”, the IC50 amounted to 135 ± 5 µM and the “% inhibition of MGO-BSA glycation” value was determined as 77.8%. For the same compound, in assay [2], the “ROS (DCF fluorescence)” value worked out at 8.75 RFU and the “antioxidant activity / ROS production inhibition (in words)” value is on record as “excellent ROS production inhibition”. The “NF-κB translocation” value in assay [3] was determined as 54 RFU. Also, the “effect on PGE2 levels (in words)” value in assay [5] was “reduced PGE2 levels significantly”.

For the compound `N.S=C(S)N1CCCC1` [PDTC, reference compound], in assay [2], the “ROS (DCF fluorescence)” value was determined as 7.84 RFU. In addition, the “NF-κB translocation” value in assay [3] is given as 45 RFU. The “reduction in COX-2 levels” value in assay [4] is recorded as 1.60 fold. Also, the “effect on PGE2 levels (in words)” value in assay [5] is recorded as “relatively more suppression than quercetin”.

As for `O=c1c(O)c(-c2ccc(O)c(O)c2)oc2cc(O)cc(O)c12` [Quercetin, 2-(3,4-dihydroxyphenyl)-3,5,7-trihydroxy-4H-chromen-4-one, reference compound], in assay [1], the concentration for half-maximal inhibition (IC50) is 138 ± 4 µM and the “% inhibition of MGO-BSA glycation” value is recorded as 58%. Besides, the “ROS (DCF fluorescence)” value in assay [2] is on record as 8.39 RFU. Besides, in assay [3], the “NF-κB translocation” value stood at 55 RFU. For the same compound, the “reduction in COX-2 levels” value in assay [4] is given as 1.31 fold.

Regarding `C[C@@H]1O[C@@H](OC[C@H]2O[C@@H](Oc3c(-c4ccc(O)c(O)c4)oc4cc(O)cc(O)c4c3=O)[C@H](O)[C@@H](O)[C@@H]2O)[C@H](O)[C@H](O)[C@H]1O` [Rutin, 2-(3,4-Dihydroxyphenyl)-5,7-dihydroxy-4-oxo-4H-chromen-3-yl 6-O-(6-deoxy-alpha-L-mannopyranosyl)-beta-D-glucopyranoside, reference compound], in assay [1], the 50% inhibitory concentration (IC50) was 104 ± 2 µM and the “% inhibition of MGO-BSA glycation” value is given as 67%. Moreover, the “ROS (DCF fluorescence)” value in assay [2] worked out at 7.44 RFU. Further, the “NF-κB translocation” value in assay [3] is 43 RFU. In addition, the “reduction in COX-2 levels” value in assay [4] came out at 1.65 fold. In addition, the “effect on PGE2 levels (in words)” value in assay [5] is given as “relatively more suppression than quercetin”.
